Source: PubChem BioAssay (NCI)
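Growth conditions: 96-well plates. Treatment: test compound, 48 hours, 5 concentrations. Analysis: linear interpolation between bracketing concentrations; unreached endpoints set to highest concentration. GI50: concentration for 50% inhibition of growth. TGI is the concentration that stops growth completely.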

Key:
Experiment in all cases: inhibition of tumour cell growth, NCI panel, 48 h
786-0 renal = tested on: 786-0 renal
A498 renal = tested on: A498 renal
A549 NSCLC = tested on: A549 NSCLC
ACHN renal = tested on: ACHN renal
BT-549 breast = tested on: BT-549 breast
CAKI-1 renal = tested on: CAKI-1 renal
CCRF-CEM leukemia = tested on: CCRF-CEM leukemia
COLO 205 colon = tested on: COLO 205 colon
DU-145 prostate = tested on: DU-145 prostate
EKVX NSCLC = tested on: EKVX NSCLC
HCC-2998 colon = tested on: HCC-2998 colon
HCT-116 colon = tested on: HCT-116 colon
HCT-15 colon = tested on: HCT-15 colon
HL-60(TB) leukemia = tested on: HL-60(TB) leukemia
HOP-62 NSCLC = tested on: HOP-62 NSCLC
HOP-92 NSCLC = tested on: HOP-92 NSCLC
HS 578T breast = tested on: HS 578T breast
HT29 colon = tested on: HT29 colon
IGROV1 ovarian = tested on: IGROV1 ovarian
K-562 leukemia = tested on: K-562 leukemia
KM12 colon = tested on: KM12 colon
LOX IMVI melanoma = tested on: LOX IMVI melanoma
M14 melanoma = tested on: M14 melanoma
MALME-3M melanoma = tested on: MALME-3M melanoma
MCF7 breast = tested on: MCF7 breast
MDA-MB-231 breast = tested on: MDA-MB-231 breast
MDA-MB-435 = tested on: MDA-MB-435
MOLT-4 leukemia = tested on: MOLT-4 leukemia
NCI-H23 lung = tested on: NCI-H23 lung
NCI-H460 lung = tested on: NCI-H460 lung
NCI-H522 lung = tested on: NCI-H522 lung
NCI/ADR-RES ovarian = tested on: NCI/ADR-RES ovarian
OVCAR-3 ovarian = tested on: OVCAR-3 ovarian
OVCAR-4 ovarian = tested on: OVCAR-4 ovarian
OVCAR-5 ovarian = tested on: OVCAR-5 ovarian
OVCAR-8 ovarian = tested on: OVCAR-8 ovarian
PC-3 prostate = tested on: PC-3 prostate
RPMI-8226 leukemia = tested on: RPMI-8226 leukemia
RXF 393 renal = tested on: RXF 393 renal
SF-268 CNS = tested on: SF-268 CNS
SF-295 CNS = tested on: SF-295 CNS
SF-539 CNS = tested on: SF-539 CNS
SK-MEL-2 melanoma = tested on: SK-MEL-2 melanoma
SK-MEL-28 melanoma = tested on: SK-MEL-28 melanoma
SK-MEL-5 melanoma = tested on: SK-MEL-5 melanoma
SK-OV-3 ovarian = tested on: SK-OV-3 ovarian
SN12C renal = tested on: SN12C renal
SNB-19 CNS = tested on: SNB-19 CNS
SNB-75 CNS = tested on: SNB-75 CNS
SW-620 colon = tested on: SW-620 colon
T-47D breast = tested on: T-47D breast
TK-10 renal = tested on: TK-10 renal
U251 CNS = tested on: U251 CNS
UACC-62 melanoma = tested on: UACC-62 melanoma
UO-31 renal = tested on: UO-31 renal

Work on `C[C@@H](C[C@H](CCO)c1ccccc1)c1ccc2ccccc2c1` yielded a GI50 (786-0 renal) of 1510 nM, a TGI (786-0 renal) of 2890 nM and a GI50 (A498 renal) of 1160 nM. The TGI (A498 renal) was 2420 nM, the GI50 (A549 NSCLC) was 1710 nM and the TGI (A549 NSCLC) was 3140 nM. For the same molecule, the GI50 (ACHN renal) was 1650 nM, the TGI (ACHN renal) was 3010 nM and the GI50 (BT-549 breast) was 1680 nM. For the same molecule, the TGI (BT-549 breast) was 3100 nM, the GI50 (CAKI-1 renal) was 1280 nM and the TGI (CAKI-1 renal) was 2540 nM. The GI50 (CCRF-CEM leukemia) was 364 nM, the TGI (CCRF-CEM leukemia) was 1510 nM and the GI50 (COLO 205 colon) was 1750 nM. For the same molecule, the TGI (COLO 205 colon) was 3410 nM, the GI50 (DU-145 prostate) was 1470 nM and the TGI (DU-145 prostate) was 2840 nM. It also gave a GI50 (EKVX NSCLC) of 1440 nM, a TGI (EKVX NSCLC) of 2820 nM and a GI50 (HCC-2998 colon) of 1740 nM. The TGI (HCC-2998 colon) was 3270 nM, the GI50 (HCT-116 colon) was 1360 nM and the TGI (HCT-116 colon) was 2670 nM. It also gave a GI50 (HCT-15 colon) of 1500 nM, a TGI (HCT-15 colon) of 2910 nM and a GI50 (HL-60(TB) leukemia) of 1910 nM. It also gave a TGI (HL-60(TB) leukemia) of 4000 nM, a GI50 (HOP-62 NSCLC) of 1520 nM and a TGI (HOP-62 NSCLC) of 2990 nM. The GI50 (HOP-92 NSCLC) was 1390 nM, the TGI (HOP-92 NSCLC) was 2770 nM and the GI50 (HS 578T breast) was 1690 nM. It also gave a TGI (HS 578T breast) of 3840 nM, a GI50 (HT29 colon) of 1430 nM and a TGI (HT29 colon) of 2800 nM. The GI50 (IGROV1 ovarian) was 1570 nM, the TGI (IGROV1 ovarian) was 3010 nM and the GI50 (K-562 leukemia) was 1630 nM. The TGI (K-562 leukemia) was 3820 nM, the GI50 (KM12 colon) was 1400 nM and the TGI (KM12 colon) was 2830 nM. It also gave a GI50 (LOX IMVI melanoma) of 1600 nM, a TGI (LOX IMVI melanoma) of 2960 nM and a GI50 (M14 melanoma) of 1460 nM. It also gave a TGI (M14 melanoma) of 2840 nM, a GI50 (MALME-3M melanoma) of 1490 nM and a TGI (MALME-3M melanoma) of 2890 nM. The GI50 (MCF7 breast) was 1970 nM, the TGI (MCF7 breast) was 4040 nM and the GI50 (MDA-MB-231 breast) was 1600 nM. The TGI (MDA-MB-231 breast) was 3190 nM, the GI50 (MDA-MB-435) was 1560 nM and the TGI (MDA-MB-435) was 2950 nM. The GI50 (MOLT-4 leukemia) was 356 nM, the TGI (MOLT-4 leukemia) was 1610 nM and the GI50 (NCI-H23 lung) was 1600 nM. The TGI (NCI-H23 lung) was 3380 nM, the GI50 (NCI-H460 lung) was 1790 nM and the TGI (NCI-H460 lung) was 3420 nM. The GI50 (NCI-H522 lung) was 1330 nM, the TGI (NCI-H522 lung) was 2780 nM and the GI50 (NCI/ADR-RES ovarian) was 1660 nM. For the same molecule, the TGI (NCI/ADR-RES ovarian) was 3400 nM, the GI50 (OVCAR-3 ovarian) was 1540 nM and the TGI (OVCAR-3 ovarian) was 2910 nM. It also gave a GI50 (OVCAR-4 ovarian) of 1510 nM, a TGI (OVCAR-4 ovarian) of 2880 nM and a GI50 (OVCAR-5 ovarian) of 1570 nM. The TGI (OVCAR-5 ovarian) was 3040 nM, the GI50 (OVCAR-8 ovarian) was 1850 nM and the TGI (OVCAR-8 ovarian) was 3820 nM. It also gave a GI50 (PC-3 prostate) of 1390 nM, a TGI (PC-3 prostate) of 2720 nM and a GI50 (RPMI-8226 leukemia) of 1850 nM. For the same molecule, the TGI (RPMI-8226 leukemia) was 4260 nM, the GI50 (RXF 393 renal) was 1450 nM and the TGI (RXF 393 renal) was 2910 nM. The GI50 (SF-268 CNS) was 1480 nM, the TGI (SF-268 CNS) was 3090 nM and the GI50 (SF-295 CNS) was 1720 nM. The TGI (SF-295 CNS) was 3190 nM, the GI50 (SF-539 CNS) was 1680 nM and the TGI (SF-539 CNS) was 3110 nM. It also gave a GI50 (SK-MEL-2 melanoma) of 1520 nM, a TGI (SK-MEL-2 melanoma) of 3020 nM and a GI50 (SK-MEL-28 melanoma) of 1640 nM. For the same molecule, the TGI (SK-MEL-28 melanoma) was 3060 nM, the GI50 (SK-MEL-5 melanoma) was 1570 nM and the TGI (SK-MEL-5 melanoma) was 2910 nM. It also gave a GI50 (SK-OV-3 ovarian) of 1700 nM, a TGI (SK-OV-3 ovarian) of 3100 nM and a GI50 (SN12C renal) of 1690 nM. It also gave a TGI (SN12C renal) of 3220 nM, a GI50 (SNB-19 CNS) of 1790 nM and a TGI (SNB-19 CNS) of 3420 nM. The GI50 (SNB-75 CNS) was 1350 nM, the TGI (SNB-75 CNS) was 2760 nM and the GI50 (SW-620 colon) was 1630 nM. It also gave a TGI (SW-620 colon) of 3140 nM, a GI50 (T-47D breast) of 1440 nM and a TGI (T-47D breast) of 3110 nM. The GI50 (TK-10 renal) was 1620 nM, the TGI (TK-10 renal) was 3120 nM and the GI50 (U251 CNS) was 1570 nM. For the same molecule, the TGI (U251 CNS) was 2940 nM, the GI50 (UACC-62 melanoma) was 1420 nM and the TGI (UACC-62 melanoma) was 2860 nM. For the same molecule, the GI50 (UO-31 renal) was 1540 nM and the TGI (UO-31 renal) was 2880 nM.
